Columns and labels:
NS3 = NS3 (Hepatitis C virus, UniProt A3EZJ3); experiment: Binding affinity at HCV NS3 protease; set-up: species or system Hepatitis C virus subtype 1b
[1] = AUC(0-6h) in rat at 10 mg, po; type: ADME, organism-based; set-up: time < 6 hr, dose 10 mg, route oral; details: plasma
[2] = Selectivity for human neutrophil elastase (HNE) over HCV NS3 protease
Hepatocyte = experiment: Inhibition of HCV replication in hepatocytes measured by cellular replicon assay; type: functional; details: Hepatitis C virus
Huh-5-2 = experiment: Cytotoxicity against hepatoma cell line containing HCV replicon measured as change in GAPDH RNA level; type: functional, Homo sapiens
[3] = AUC in rat; type: ADME, organism-based; details: plasma
[4] = AUC in rat at 10 mg/kg, po; type: ADME, organism-based; set-up: dose 10 mg/kg, route oral; details: plasma
[5] = Bioavailability in rat at 10 mg/kg, po; type: ADME, organism-based; details: in vivo

Chain of NS3 (A3EZJ3 whole entry): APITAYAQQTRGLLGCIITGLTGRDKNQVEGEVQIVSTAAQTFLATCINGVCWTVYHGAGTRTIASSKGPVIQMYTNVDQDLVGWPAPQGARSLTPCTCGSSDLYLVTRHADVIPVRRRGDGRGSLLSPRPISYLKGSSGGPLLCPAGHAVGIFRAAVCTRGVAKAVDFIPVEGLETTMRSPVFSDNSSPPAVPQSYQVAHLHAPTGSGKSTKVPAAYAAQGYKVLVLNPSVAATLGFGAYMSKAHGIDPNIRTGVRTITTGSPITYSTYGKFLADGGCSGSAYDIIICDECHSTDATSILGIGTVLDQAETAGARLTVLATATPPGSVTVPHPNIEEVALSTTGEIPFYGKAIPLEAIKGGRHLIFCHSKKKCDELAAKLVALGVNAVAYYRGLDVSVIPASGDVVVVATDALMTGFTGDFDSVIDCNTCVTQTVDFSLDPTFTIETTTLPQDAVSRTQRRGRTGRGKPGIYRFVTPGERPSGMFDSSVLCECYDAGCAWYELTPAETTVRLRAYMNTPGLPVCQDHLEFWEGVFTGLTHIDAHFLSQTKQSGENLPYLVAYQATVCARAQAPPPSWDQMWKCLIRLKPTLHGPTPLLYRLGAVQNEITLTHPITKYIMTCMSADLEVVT

| SMILES | Ki (NS3) [nM] | Selectivity ratio [2] | other results |
| --- | --- | --- | --- |
| CCCC(NC(=O)[C@@H]1[C@@H]2[C@H](CN1C(=O)[C@@H](NC(=O)OC(C)(C)C)C1CCCCC1)C2(C)C)C(=O)C(=O)NC (stereo partly drawn) | 1500 | – | AUC(0-t) at 6 h [1]: 13.4 µM·h |
| C=C(C)CC(NC(=O)[C@@H]1[C@@H]2[C@H](CN1C(=O)[C@@H](NC(=O)OC(C)(C)C)C1CCCCC1)C2(C)C)C(=O)C(N)=O (stereo partly drawn) | 300 | 2 | – |
| CC(C)(C)OC(=O)N[C@H](C(=O)N1C[C@H]2[C@@H]([C@H]1C(=O)NC(CC1CC1)C(=O)C(N)=O)C2(C)C)C1Cc2ccccc2C1 (stereo partly drawn) | 82 | 49 | EC90 (Hepatocyte): > 1000 nM; Activity (Huh-5-2): >5 µM |
| CC(C)COC(=O)N[C@H](C(=O)N1C[C@H]2[C@@H]([C@H]1C(=O)NC(CC1CC1)C(=O)C(N)=O)C2(C)C)C(C)(C)C (stereo partly drawn) | 70 | 160 | – |
| CC(C)(C)OC(=O)N[C@H](C(=O)N1C[C@H]2[C@@H]([C@H]1C(=O)NC(CC1CC1)C(=O)C(N)=O)C2(C)C)C(C)(C)C (stereo partly drawn) | – | – | EC90 (Hepatocyte): 600 nM; Activity (Huh-5-2): >5 µM |
| CCC(NC(=O)[C@@H]1[C@@H]2[C@H](CN1C(=O)[C@@H](NC(=O)OC(C)(C)C)C1CCCCC1)C2(C)C)C(=O)C(N)=O (stereo partly drawn) | 740 | – | – |
| CCCC(NC(=O)[C@@H]1[C@@H]2[C@H](CN1C(=O)[C@@H](NC(=O)OC(C)(C)C)C1CCCCC1)C2(C)C)C(=O)C(=O)N(C)C (stereo partly drawn) | > 13000 | – | – |
| CC(C)(C)OC(=O)N[C@H](C(=O)N1C[C@H]2[C@@H]([C@H]1C(=O)NC(CC1CCC1)C(=O)C(N)=O)C2(C)C)C(C)(C)O (stereo partly drawn) | 220 | 55 | – |
| CC(C)(C)OC(=O)N[C@H](C(=O)N1C[C@H]2[C@@H]([C@H]1C(=O)NC(CC1CC1)C(=O)C(N)=O)C2(C)C)C1CCCC1 (stereo partly drawn) | 100 | 11 | – |
| CCCC(NC(=O)[C@@H]1[C@@H]2[C@H](CN1C(=O)[C@@H](NC(=O)OC(C)(C)C)C1CCCCC1)C2(C)C)C(=O)C(=O)NCC(=O)OC(C)(C)c1ccccc1 (stereo partly drawn) | 50 | – | – |
| CCCC(NC(=O)[C@@H]1[C@@H]2[C@H](CN1C(=O)[C@@H](NC(=O)OC(C)(C)C)C1CCCCC1)C2(C)C)C(=O)C(=O)NCC(=O)N[C@@H](C)C1CCCCC1 (stereo partly drawn) | 92 | – | – |
| CCCC(NC(=O)[C@@H]1[C@@H]2[C@H](CN1C(=O)[C@@H](NC(=O)OC(C)(C)C)C1CCCCC1)C2(C)C)C(=O)C(=O)NCC(=O)N[C@H](C)C1CCCCC1 (stereo partly drawn) | 100 | – | AUC [3]: 0.09 µM·h |
| C[C@@H](NC(=O)N[C@H](C(=O)N1C[C@H]2[C@@H]([C@H]1C(=O)NC(CC1CCC1)C(=O)C(N)=O)C2(C)C)C(C)(C)C)C(C)(C)C (stereo partly drawn) | 35 | 380 | EC90 (Hepatocyte): 400 nM; Activity (Huh-5-2): >5 µM |
| CC(C)[C@H](NC(=O)OC(C)(C)C)C(=O)N1C[C@H]2[C@@H]([C@H]1C(=O)NC(CC1CC1)C(=O)C(N)=O)C2(C)C (stereo partly drawn) | 210 | 19 | – |
| CC(C)(C)OC(=O)N[C@H](C(=O)N1C[C@H]2[C@@H](C1C(=O)NC(CC(F)(F)F)C(=O)C(N)=O)C2(C)C)C1CCCCC1 (stereo partly drawn) | 50 | 2 | EC90 (Hepatocyte): 700 nM; Activity (Huh-5-2): >5 µM |
| CC(C)(C)OC(=O)N[C@H](C(=O)N1C[C@H]2[C@@H]([C@H]1C(=O)NC(CC1CCC1)C(=O)C(N)=O)C2(C)C)C(C)(C)C (stereo partly drawn) | 76 | 684 | EC90 (Hepatocyte): 800 nM; Activity (Huh-5-2): >5 µM |
| CC(C)(C)OC(=O)N[C@H](C(=O)N1C[C@H]2[C@@H]([C@H]1C(=O)NC(CC1CC1)C(=O)C(N)=O)C2(C)C)C1CCCCC1 (stereo partly drawn) | 25 | 23 | EC90 (Hepatocyte): 400 nM; AUC [4]: 1.3 µM·h; bioavailability [5]: 3.4%; Activity (Huh-5-2): >5 µM |
| CCCC(NC(=O)[C@@H]1[C@@H]2[C@H](CN1C(=O)[C@@H](NC(=O)OC(C)(C)C)C1CCCCC1)C2(C)C)C(=O)C(N)=O (stereo partly drawn) | 100 | 3 | AUC(0-t) at 6 h [1]: 2.52 µM·h |
| C=CCNC(=O)C(=O)C(CCC)NC(=O)[C@@H]1[C@@H]2[C@H](CN1C(=O)[C@@H](NC(=O)OC(C)(C)C)C1CCCCC1)C2(C)C (stereo partly drawn) | 280 | – | AUC(0-t) at 6 h [1]: 26 µM·h |
| CC(C)CC(NC(=O)[C@@H]1[C@@H]2[C@H](CN1C(=O)[C@@H](NC(=O)OC(C)(C)C)C1CCCCC1)C2(C)C)C(=O)C(N)=O (stereo partly drawn) | 400 | 9 | – |
| CN(C(=O)N[C@H](C(=O)N1C[C@H]2[C@@H]([C@H]1C(=O)NC(CC1CC1)C(=O)C(N)=O)C2(C)C)C(C)(C)C)C(C)(C)C (stereo partly drawn) | 60 | 45 | EC90 (Hepatocyte): > 1000 nM; Activity (Huh-5-2): >5 µM |

Now from value to compound, other results behind:

| Ki (NS3) [nM] | Selectivity ratio [2] | SMILES | other results |
| --- | --- | --- | --- |
| > 14000 | – | CC(C)(C)OC(=O)N[C@H](C(=O)N1C[C@H]2[C@@H]([C@H]1C(=O)NC1(C(=O)C(N)=O)CC1)C2(C)C)C1CCCCC1 | – |
| 80 | 100 | CC1(NC(=O)N[C@H](C(=O)N2C[C@H]3[C@@H]([C@H]2C(=O)NC(CC2CC2)C(=O)C(N)=O)C3(C)C)C(C)(C)C)CC1 (stereo partly drawn) | EC90 (Hepatocyte): 900 nM; Activity (Huh-5-2): >5 µM |
| 270 | – | CC(C)(C)OC(=O)N[C@H](C(=O)N1C[C@H]2[C@@H]([C@H]1C(=O)NC(CC1CCC1)C(=O)C(N)=O)C2(C)C)C1Cc2ccccc2C1 (stereo partly drawn) | EC90 (Hepatocyte): 2000 nM; Activity (Huh-5-2): >5 µM |
| 140 | 160 | CC(C)NC(=O)N[C@H](C(=O)N1C[C@H]2[C@@H]([C@H]1C(=O)NC(CC1CC1)C(=O)C(N)=O)C2(C)C)C(C)(C)C (stereo partly drawn) | – |
| 790 | – | CCCC(NC(=O)[C@@H]1[C@@H]2[C@H](CN1C(=O)[C@@H](NC(=O)OC(C)(C)C)C1CCCCC1)C2(C)C)C(=O)C(=O)NCC(N)=O (stereo partly drawn) | – |
| 56 | – | CCCC(NC(=O)[C@@H]1[C@@H]2[C@H](CN1C(=O)[C@@H](NC(=O)OC(C)(C)C)C1CCCCC1)C2(C)C)C(=O)C(=O)NCC(=O)NCc1ccccc1 (stereo partly drawn) | AUC [3]: 1.27 µM·h |
| 50 | 38 | CC(C)(C)NC(=O)N[C@H](C(=O)N1C[C@H]2[C@@H]([C@H]1C(=O)NC(CC1CC1)C(=O)C(N)=O)C2(C)C)C1CCCCC1 (stereo partly drawn) | – |
| 300 | – | CC(C)(C)OC(=O)N[C@H](C(=O)N1C[C@H]2[C@@H]([C@H]1C(=O)NC(CC1CC1)C(=O)C(N)=O)C2(C)C)C1(C)CC1 (stereo partly drawn) | – |
| 55 | – | CCCC(NC(=O)[C@@H]1[C@@H]2[C@H](CN1C(=O)[C@@H](NC(=O)OC(C)(C)C)C1CCCCC1)C2(C)C)C(=O)C(=O)NCC(=O)N[C@H](C)c1ccccc1 (stereo partly drawn) | – |
| 90 | 140 | CC(C)(C)OC(=O)N[C@H](C(=O)N1C[C@H]2[C@@H](C1C(=O)NC(CC1CCO1)C(=O)C(N)=O)C2(C)C)C1CCCCC1 (stereo partly drawn) | – |
| 700 | – | CC(C)(C)OC(=O)N[C@H](C(=O)N1C[C@H]2[C@@H]([C@H]1C(=O)NC(CC1CCC1)C(=O)C(N)=O)C2(C)C)C1(C)CC1 (stereo partly drawn) | – |
| 1900 | – | CCCCNC(=O)C(=O)C(CCC)NC(=O)[C@@H]1[C@@H]2[C@H](CN1C(=O)[C@@H](NC(=O)OC(C)(C)C)C1CCCCC1)C2(C)C (stereo partly drawn) | – |
| 50 | 90 | CC(C)(C)NC(=O)N[C@H](C(=O)N1C[C@H]2[C@@H]([C@H]1C(=O)NC(CC1CCC1)C(=O)C(N)=O)C2(C)C)C1CCCCC1 (stereo partly drawn) | – |
| > 12000 | – | CC(C)(C)OC(=O)N[C@H](C(=O)N1C[C@H]2[C@@H]([C@H]1C(=O)NC(CC1CCCCC1)C(=O)C(N)=O)C2(C)C)C1CCCCC1 (stereo partly drawn) | – |
| 150 | 2 | C=CCCC(NC(=O)[C@@H]1[C@@H]2[C@H](CN1C(=O)[C@@H](NC(=O)OC(C)(C)C)C1CCCCC1)C2(C)C)C(=O)C(N)=O (stereo partly drawn) | – |
| 16 | 4200 | CC(C)NC(=O)N[C@H](C(=O)N1C[C@H]2[C@@H]([C@H]1C(=O)NC(CC1CCC1)C(=O)C(N)=O)C2(C)C)C(C)(C)C (stereo partly drawn) | EC90 (Hepatocyte): 730 nM; AUC [4]: 0.83 µM·h; bioavailability [5]: 13%; Activity (Huh-5-2): >5 µM |
| 400 | – | CC(C)(C)OC(=O)N[C@H](C(=O)N1C[C@H]2[C@@H]([C@H]1C(=O)NC(CC1COC1)C(=O)C(N)=O)C2(C)C)C1CCCCC1 (stereo partly drawn) | EC90 (Hepatocyte): > 1000 nM; Activity (Huh-5-2): >5 µM |
| 36 | 3800 | CC(C)[C@H](C)OC(=O)N[C@H](C(=O)N1C[C@H]2[C@@H]([C@H]1C(=O)NC(CC1CCC1)C(=O)C(N)=O)C2(C)C)C(C)(C)C (stereo partly drawn) | EC90 (Hepatocyte): 700 nM; Activity (Huh-5-2): >5 µM |
| 110 | – | CCCC(NC(=O)[C@@H]1[C@@H]2[C@H](CN1C(=O)[C@@H](NC(=O)OC(C)(C)C)C1CCCCC1)C2(C)C)C(=O)C(=O)O (stereo partly drawn) | – |
| 60 | – | CCCC(NC(=O)[C@@H]1[C@@H]2[C@H](CN1C(=O)[C@@H](NC(=O)OC(C)(C)C)C1CCCCC1)C2(C)C)C(=O)C(=O)NCC(=O)NCc1cccs1 (stereo partly drawn) | AUC [3]: 0.73 µM·h |
| 100 | 270 | CN(C(=O)N[C@H](C(=O)N1C[C@H]2[C@@H]([C@H]1C(=O)NC(CC1CCC1)C(=O)C(N)=O)C2(C)C)C(C)(C)C)C(C)(C)C (stereo partly drawn) | – |
| 150 | 370 | CC(C)(C)OC(=O)N[C@H](C(=O)N1C[C@H]2[C@@H]([C@H]1C(=O)NC(CC1CCCC1)C(=O)C(N)=O)C2(C)C)C1CCCCC1 (stereo partly drawn) | – |
| 130 | – | CCCC(NC(=O)[C@@H]1[C@@H]2[C@H](CN1C(=O)[C@@H](NC(=O)OC(C)(C)C)C1CCCCC1)C2(C)C)C(=O)C(=O)NCC(=O)NCC1CC1 (stereo partly drawn) | – |
| 150 | 100 | CC(C)OC(=O)N[C@H](C(=O)N1C[C@H]2[C@@H]([C@H]1C(=O)NC(CC1CC1)C(=O)C(N)=O)C2(C)C)C(C)(C)C (stereo partly drawn) | – |
| 300 | – | CC(C)(C)[C@H](NC(=O)OC1CC1)C(=O)N1C[C@H]2[C@@H]([C@H]1C(=O)NC(CC1CC1)C(=O)C(N)=O)C2(C)C (stereo partly drawn) | – |
